Test results from patent US6114517A, “Methods of modulating tumor necrosis factor α-induced expression of cell adhesion molecules” (Isis Pharmaceuticals Inc., priority 1998, dated 2000).

What was measured:
Format in all cases: cell-based, human
Ha-ras mRNA = Ha-ras mRNA levels by Northern blot in HMVEC
Protocol: Human dermal microvascular cells (HMVEC-d; Clonetics, San Diego, Calif.) were cultivated in endothelial basal media (EBM, Clonetics) supplemented with 10% fetal bovine serum (HyClone, Logan, Utah). Cells were grown in 100 mm petri dishes until 70-80% confluent, then washed with PBS and OPTI-MEM (Life Technologies, Inc., Gaithersburg, Md.). The cells were then incubated in the presence of OPTI-MEM and […] LIPOFECTIN (a 1:1 (w/w) liposome formulation of the cationic lipid N-[1-(2,3-dioleyloxy)propyl]-n,n,n-trimethylammonium chloride (DOTMA), and dioleoyl phosphotidylethanolamine (DOPE) in membrane filtered water (Life Technologies, Gaithersburg, Md.), per 100 nM of oligonucleotide followed by addition of oligonucleotide at the appropriate concentrations.
For determination of mRNA levels by Northern blot, total RNA was prepared from cells by the guanidinium isothiocyanate procedure or by the Qiagen RNAEASY method (Qiagen, Santa Clarita, Calif.) at the indicated times after initiation of oligonucleotide treatment. Northern blot analysis was performed as described in Current Protocols in Molecular Biology (Ausubel, F. M., et al., (eds), 1987, Greene Publishing Assoc. and Wiley Interscience, New York). A glyceraldehyde 3-phosphate dehydrogenase (G3PDH) probe was purchased from Clontech (Palo Alto, Calif., Catalog Number 9805-1). RNA was quantified and normalized to G3PDH mRNA levels using a Molecular Dynamic PHOSPHORIMAGER (Sunnyvale, Calif.).
ISIS 15168 (SEQ ID NO. 4) is a 2'-O-methoxyethyl mixed backbone chimeric antisense oligonucleotide designed to hybridize with sequences contained within the human Ha-ras mRNA. To determine the effect of ISIS 15168 (SEQ ID NO. 4) on Ha-ras expression in endothelial cells, HMVEC were treated, as described in Example 2, with oligonucleotide and northern blotting was used to measure Ha-ras mRNA levels. A Ha-ras probe was generated from the plasmid, pbc-N1 (American Type Culture Collection, Manassas, Va.; catalog #41001), following the supplied instructions.

Ha-ras protein = Ha-ras protein levels, immunoprecipitation and Western blot in HMVEC; conditions: for Ha-ras protein expression: 48 hours following treatment
Protocol: (§1) For determination of protein levels by Western blot, cellular extracts were prepared using […] of RIPA extraction buffer per 100-mm dish. The protein concentration was quantified by Bradford assay using the BioRad kit (BioRad, Hercules, Calif.). Equal amounts of protein were loaded on 10% or 12% SDS-PAGE mini-gel (Novex, San Diego, Calif.). Once transferred to PVDF membranes (Millipore, Bedford, Mass.), the membranes were then treated for a minimum of 2 hours with specific primary antibody followed by incubation with secondary antibody conjugated to HRP. The results were visualized by Enhanced Chemiluminescent (ECL) detection (New England BioLab, Beverly, Mass.). In some experiments, the blots were stripped in stripping buffer (2% SDS, 12.5 mM Tris, pH 6.8) for 30 minutes at 50° C. After extensive washing, the blots were blocked and blotted with different primary antibody.
(§2) To examine the effect of ISIS 15168 (SEQ ID NO. 4) on Ha-ras protein levels, total ras protein was immunoprecipitated using a pan-ras monoclonal antibody (Oncogene Science, Cambridge, Mass.). The precipitated proteins were analyzed by SDS-PAGE, and Ha-ras protein levels were determined by western blot using a monoclonal antibody specific for Ha-ras (Oncogene Science, Cambridge, Mass.). […] The kinetics of Ha-ras reduction was slower than that of c-raf. The control oligonucleotide, ISIS 17552 (SEQ ID NO. 5), had no effect on Ha-ras protein level. The same blot was stripped and blotted a second time with a Ki-ras-specific antibody (Oncogene Science, Cambridge, Mass.).

Ki-ras protein = Ki-ras protein levels by Western blot in HMVEC; conditions: same blot stripped and blotted with Ki-ras-specific antibody
Protocol: as §1
as §2, with “The control oligonucleotide, ISIS 17552 (SEQ ID NO. 5), had no effect on Ha-ras protein level. The same blot was stripped and blotted a second time with a Ki-ras-specific antibody (Oncogene Science, Cambridge, Mass.).” left out

p38 MAPK = assay: TNF-α-stimulated p38 MAPK activity, in vitro kinase assay on extracts of treated cells; conditions: 48 hours recovery, TNF-α 5 or 15 minutes
Protocol: To examine the effect of the c-raf antisense oligonucleotide (ISIS 12854, SEQ ID NO. 2) on ERK, JNK, and p38 MAPK activities stimulated by TNF-α, in vitro kinase assays were performed on extracts derived from cells treated with ISIS 12854 (SEQ ID NO. 2). Cells were treated with oligonucleotides and induced with cytokines. At the indicated time, cells were lysed on ice and debris was removed by centrifugation. Protein concentration was measured by Bradford assay. Lysate containing equal amounts of protein were incubated with primary antibody-agarose conjugates (ERK and p38 assay; Santa Cruz Biotechnology, Santa Cruz, Calif.), or with JNK1-specific or JNK2-specific antibodies (JNK assay; Upstate Biotechnology, Lake Placid, N.Y.), overnight at 4° C.
For isoform-specific JNK assays, anti-rabbit IgG conjugated with agarose beads was added to cell extracts following JNK antibody treatment and wash steps and incubated for 2 hours at 4° C. […]
Cells were treated with the c-raf antisense compound, ISIS 12854 (SEQ ID NO. 2), allowed to recover for 48 hours, at which time TNF-α was added for 5 or 15 minutes prior to cell lysis and initiation of the kinase assays. […] Suitable substrates and ATP were added to the immunoprecipitated kinase complexes and the reaction mixes were analyzed on SDS-PAGE. […]

| Substance | % mRNA Expression (Ha-ras) (Ha-ras mRNA; 1 nM) [%] | % mRNA Expression (Ha-ras) (Ha-ras mRNA; 5 nM) [%] | % mRNA Expression (Ha-ras) (Ha-ras mRNA; 25 nM) [%] | % mRNA Inhibition (Ha-ras) (Ha-ras mRNA; 25 nM) [%] | % mRNA Expression (Ha-ras) (Ha-ras mRNA; 50 nM) [%] | % mRNA Expression (Ha-ras) (Ha-ras mRNA; 100 nM) [%] | Ha-ras protein expression (Ha-ras protein) | effect on Ki-ras protein levels (Ki-ras protein) | Activation of p38 MAPK (p38 MAPK) | % mRNA Inhibition (Ha-ras) (Ha-ras mRNA; 1 nM) [%] | % mRNA Inhibition (Ha-ras) (Ha-ras mRNA; 5 nM) [%] | % mRNA Inhibition (Ha-ras) (Ha-ras mRNA; 50 nM) [%] | % mRNA Inhibition (Ha-ras) (Ha-ras mRNA; 100 nM) [%] | persistence of reduction of Ha-ras protein (Ha-ras protein; following initial treatment) |
| --- | --- | --- | --- | --- | --- | --- | --- | --- | --- | --- | --- | --- | --- | --- |
| ToCoAsGsTsAsAsTsAsGsCsCsCoCoAoCoAoToGoG [ISIS 17552, reference compound] | 103 | 115 | 96 | 4 | 109 | 105 | no effect | No effect | – | – | – | – | – | – |
| ToCoCoCoGoCsCsTsGsTsGsAsCsAsToGoCoAoToT [ISIS 12854] | – | – | – | – | – | – | – | – | not affected | – | – | – | – | – |
| ToCoCsGsTsCsAsTsCsGsCsTsCoCoToCoAoGoGoG [ISIS 15168] | 61 | 44 | 19 | 81 | 10 | 9 | dose-dependent reduction | No effect | – | 39 | 56 | 90 | 91 | up to 72 hours |
